From ChEMBL document CHEMBL1201862, “PubChem BioAssay data set” (2004)
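1) Cells in 96-well plates. 2) Compound, 48 h, 5 concentrations. 3) Linear interpolation between surrounding doses. 4) Unreached endpoint = highest concentration. GI50 marks 50% less growth.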 Activity calls are given as the source filed them. Rule as the data show it: active = GI50 up to about 1.1 µM and inactive = higher.

Columns and labels:
Test in all cases: DTP human tumour cell line panel, 48 h
HCT-116 = test system: HCT-116
Malme-3M = test system: Malme-3M
SW-620 = test system: SW-620
TK-10 = test system: TK-10
OVCAR-4 = test system: OVCAR-4
IGROV-1 = test system: IGROV-1
COLO 205 = test system: COLO 205
MOLT-4 = test system: MOLT-4
RXF 393 = test system: RXF 393
Hs-578T = test system: Hs-578T
SR = test system: SR
HT-29 = test system: HT-29
SK-MEL-5 = test system: SK-MEL-5
SK-MEL-28 = test system: SK-MEL-28
T47D = test system: T47D
PC-3 = test system: PC-3
KM12 = test system: KM12
HOP-92 = test system: HOP-92
UACC-257 = test system: UACC-257
MDA-MB-435 = test system: MDA-MB-435

Structure (SMILES)	GI50 (HCT-116)	GI50 (Malme-3M)	GI50 (SW-620)	GI50 (TK-10)	GI50 (OVCAR-4)	GI50 (IGROV-1)	GI50 (COLO 205)	GI50 (MOLT-4)	GI50 (RXF 393)	GI50 (Hs-578T)	GI50 (SR)	GI50 (HT-29)	GI50 (SK-MEL-5)	GI50 (SK-MEL-28)	GI50 (T47D)	GI50 (PC-3)	GI50 (KM12)	GI50 (HOP-92)	GI50 (UACC-257)	GI50 (MDA-MB-435)
O=c1c(-c2nc3ccccc3c3ccccc3c2=O)nc2ccccc2c2ccccc12	23.8 µM (inactive)	76.6 µM (inactive)	33.7 µM (inactive)	48.4 µM (inactive)	37.5 µM (inactive)	44.9 µM (inactive)	38.4 µM (inactive)	34.6 µM (inactive)	26.8 µM (inactive)	51.4 µM (inactive)	21.9 µM (inactive)	43.5 µM (inactive)	24.8 µM (inactive)	55.5 µM (inactive)	32.6 µM (inactive)	27.7 µM (inactive)	38.3 µM (inactive)	37.1 µM (inactive)	33.8 µM (inactive)	29.2 µM (inactive)
C=CC1(c2ccc(OC)cc2)OCCCO1	> 100 µM (inactive)	> 100 µM (inactive)	> 100 µM (inactive)	> 100 µM (inactive)	> 100 µM (inactive)	> 100 µM (inactive)	> 100 µM (inactive)	> 100 µM (inactive)	> 100 µM (inactive)	> 100 µM (inactive)	> 100 µM (inactive)	> 100 µM (inactive)	> 100 µM (inactive)	> 100 µM (inactive)	> 100 µM (inactive)	> 100 µM (inactive)	> 100 µM (inactive)	> 100 µM (inactive)	> 100 µM (inactive)	> 100 µM (inactive)
CCNCCCCNCCCCNCCCCNCCCCNCC	11.4 µM (inactive)	6.49 µM (inactive)	> 100 µM (inactive)	29.7 µM (inactive)	> 22.2 µM (inactive)	41.9 µM (inactive)	43.8 µM (inactive)	> 79.6 µM (inactive)	27.7 µM (inactive)	2.84 µM (inactive)	56.4 µM (inactive)	18.6 µM (inactive)	53.5 µM (inactive)	9.14 µM (inactive)	6.17 µM (inactive)	> 100 µM (inactive)	76.6 µM (inactive)	30.8 µM (inactive)	40.1 µM (inactive)	8.97 µM (inactive)
COc1cc(/C=C2\Sc3scc(-c4cccc([N+](=O)[O-])c4)[n+]3C2=O)cc(OC)c1OC	11.1 µM (inactive)	13.8 µM (inactive)	9.1 µM (inactive)	10.7 µM (inactive)	15.3 µM (inactive)	14 µM (inactive)	3.87 µM (inactive)	3.21 µM (inactive)	12.5 µM (inactive)	10.8 µM (inactive)	2.05 µM (inactive)	13.1 µM (inactive)	6.1 µM (inactive)	16.1 µM (inactive)	5.56 µM (inactive)	21.4 µM (inactive)	17.8 µM (inactive)	11.3 µM (inactive)	12.5 µM (inactive)	12.6 µM (inactive)
Oc1cccc(-c2cn3cc(Cl)ccc3n2)c1	57.9 µM (inactive)	51.6 µM (inactive)	> 100 µM (inactive)	35.4 µM (inactive)	32.1 µM (inactive)	16.7 µM (inactive)	33.6 µM (inactive)	32.7 µM (inactive)	23.1 µM (inactive)	97.1 µM (inactive)	47.2 µM (inactive)	43.4 µM (inactive)	16.6 µM (inactive)	59.8 µM (inactive)	12.7 µM (inactive)	29.2 µM (inactive)	37.2 µM (inactive)	91.8 µM (inactive)	25.6 µM (inactive)	34.9 µM (inactive)
COC1(OC)C2(Cl)C(Cl)=C(Cl)C1(Cl)C1c3ccc(C(C)=O)c4cccc(c34)C12 (stereo not given)	6.47 µM (inactive)	12.3 µM (inactive)	> 53.6 µM (inactive)	71 µM (inactive)	27.9 µM (inactive)	> 94.6 µM (inactive)	12.8 µM (inactive)	5.47 µM (inactive)	27.7 µM (inactive)	> 100 µM (inactive)	13.7 µM (inactive)	5.24 µM (inactive)	10.4 µM (inactive)	42.8 µM (inactive)	20.8 µM (inactive)	14.2 µM (inactive)	11.7 µM (inactive)	2.89 µM (inactive)	25.6 µM (inactive)	7.67 µM (inactive)
CC(C)=CCC[C@@H](C)C1=C(Nc2ccccc2)C(=O)C(C)=C(O)C1=O	1.53 µM (inactive)	4.2 µM (inactive)	3.78 µM (inactive)	4.29 µM (inactive)	6.62 µM (inactive)	3.01 µM (inactive)	2.74 µM (inactive)	0.719 µM (active)	3.78 µM (inactive)	2.34 µM (inactive)	0.631 µM (active)	4.16 µM (inactive)	2 µM (inactive)	8.02 µM (inactive)	6.7 µM (inactive)	3.63 µM (inactive)	3.42 µM (inactive)	2.87 µM (inactive)	5.53 µM (inactive)	4.72 µM (inactive)
